Measured values: US20050009924A1 (priority 2003, published 2005)

What was measured:
[1] = test system: transcriptional activity of hTERT; experiment: SEAP reporter assay of hTERT expression, PhTERT-SEAP (hTERT-BJ1); assay type: cell-based, human; details: PhTERT-SEAP (hTERT-BJ1)
Method in brief: (§1)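 We treated G418-selected reporter cells with varying drug amounts for 24 h and measured SEAP in the heat-inactivated medium as the rate of 405 nm absorbance increase.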

[2] = test system: non-small-cell lung cancer cells H1299; experiment: MTT relative viability, PhTERT-SEAP (H1299) cells; details: PhTERT-SEAP(hTERT-H1299)
[3] = test system: human hepatoma G2 cells; experiment: Cytotoxicity assay (XTT colorimetric), Hep G2; assay type: cell-based; details: 48 h of drug exposure
[4] = test system: hepatitis B virus transfected hepatoma cell lines, HepG 2.2.15 cells; experiment: Cytotoxicity assay, 2.2.15 cells; assay type: cell-based, human; details: 48 h of drug exposure
[5] = test system: rat glioma C6 cells; experiment: Cytotoxicity assay (XTT colorimetric), C6 cells; assay type: cell-based; details: 48 h of drug exposure
[6] = test system: transcriptional activity of hTERT; experiment: SEAP reporter assay of hTERT expression, PhTERT-SEAP (H1299); assay type: cell-based, human; details: PhTERT-SEAP(hTERT-H1299)
Method in brief: as §1

[7] = test system: hTERT-BJ1 cells; experiment: MTT relative viability, PhTERT-SEAP (hTERT-BJ1) cells; details: PhTERT-SEAP (hTERT-BJ1)

Compound: O=C(Nc1ccc(NC(=O)c2ccc(Cl)cc2)c2c1C(=O)c1ccccc1C2=O)c1ccc(Cl)cc1 [VI16, 1,4-Bis(4-chlorobenzoylamido)-9,10-anthracenedione]
- Relative SEAP activity (%) ([1]; 1.9 μM): 116 ± 28.6%
- SEAP/vibility ([1]; 1.9 μM): 1.05
- Relative SEAP activity (%) ([1]; 19 μM): 112 ± 21.9%
- SEAP/vibility ([1]; 19 μM): 1.09
- Relative SEAP activity (%) ([1]; 194 μM): 152 ± 39.7%
- SEAP/vibility ([1]; 194 μM): 1.54
- Relative MTT viability (%) ([2]; 1.9 μM): 89 ± 5.5%
- Relative MTT viability (%) ([2]; 19 μM): 89 ± 9.5%
- Relative MTT viability (%) ([2]; 194 μM): 79 ± 5.6%
- IC50 [3]: > 20 µM
- IC50 [4]: > 20 µM
- IC50 [5]: > 20 µM
- Relative SEAP activity (%) ([6]; 1.9 μM): 109 ± 6.8%
- SEAP/vibility ([6]; 1.9 μM): 1.23
- Relative SEAP activity (%) ([6]; 19 μM): 118 ± 5.6%
- SEAP/vibility ([6]; 19 μM): 1.33
- Relative SEAP activity (%) ([6]; 194 μM): 116 ± 12.3%
- SEAP/vibility ([6]; 194 μM): 1.46
- Relative MTT viability (%) ([7]; 1.9 μM): 111 ± 0.8%
- Relative MTT viability (%) ([7]; 19 μM): 103 ± 5.9%
- Relative MTT viability (%) ([7]; 194 μM): 99 ± 5.2%

Compound: O=C(Nc1ccc(NC(=O)c2ccc(F)cc2F)c2c1C(=O)c1ccccc1C2=O)c1ccc(F)cc1F [VI18, 1,4-Bis(2,4-difluorobenzoylamido)-9,10-anthracenedione]
- Relative SEAP activity (%) ([1]; 1.9 μM): 48 ± 21.7%
- SEAP/vibility ([1]; 1.9 μM): 0.46
- Relative SEAP activity (%) ([1]; 19 μM): 51 ± 18.5%
- SEAP/vibility ([1]; 19 μM): 0.50
- Relative SEAP activity (%) ([1]; 192 μM): 48 ± 23.1%
- SEAP/vibility ([1]; 192 μM): 0.46
- Relative MTT viability (%) ([2]; 1.9 μM): 87 ± 3.7%
- Relative MTT viability (%) ([2]; 19 μM): 85 ± 7.1%
- Relative MTT viability (%) ([2]; 192 μM): 69 ± 8.4%
- IC50 [3]: > 20 µM
- IC50 [4]: > 20 µM
- IC50 [5]: > 20 µM
- Relative SEAP activity (%) ([6]; 1.9 μM): 93 ± 5.6%
- SEAP/vibility ([6]; 1.9 μM): 1.06
- Relative SEAP activity (%) ([6]; 19 μM): 99 ± 5.4%
- SEAP/vibility ([6]; 19 μM): 1.17
- Relative SEAP activity (%) ([6]; 192 μM): 99 ± 1.8%
- SEAP/vibility ([6]; 192 μM): 1.44
- Relative MTT viability (%) ([7]; 1.9 μM): 104 ± 5.6%
- Relative MTT viability (%) ([7]; 19 μM): 101 ± 4.4%
- Relative MTT viability (%) ([7]; 192 μM): 103 ± 6.1%

Compound: O=C1c2ccccc2C(=O)c2c(NC(=O)C3CCCC3)ccc(NC(=O)C3CCCC3)c21 [VI20, 1,4-Bis(cyclopentaneamido)-9,110-anthracenedione]
- Relative SEAP activity (%) ([1]; 2.3 μM): 85 ± 7.7%
- SEAP/vibility ([1]; 2.3 μM): 0.81
- Relative SEAP activity (%) ([1]; 23 μM): 93 ± 18.5%
- SEAP/vibility ([1]; 23 μM): 0.90
- Relative SEAP activity (%) ([1]; 233 μM): 63 ± 36.5%
- SEAP/vibility ([1]; 233 μM): 0.67
- Relative MTT viability (%) ([2]; 2.3 μM): 107 ± 6.1%
- Relative MTT viability (%) ([2]; 23 μM): 103 ± 6.1%
- Relative MTT viability (%) ([2]; 233 μM): 92 ± 8.6%
- IC50 [3]: > 20 µM
- IC50 [4]: > 20 µM
- IC50 [5]: > 20 µM
- Relative SEAP activity (%) ([6]; 2.3 μM): 119 ± 8.5%
- SEAP/vibility ([6]; 2.3 μM): 1.11
- Relative SEAP activity (%) ([6]; 23 μM): 118 ± 9.2%
- SEAP/vibility ([6]; 23 μM): 1.15
- Relative SEAP activity (%) ([6]; 233 μM): 113 ± 8.9%
- SEAP/vibility ([6]; 233 μM): 1.23
- Relative MTT viability (%) ([7]; 2.3 μM): 106 ± 2.3%
- Relative MTT viability (%) ([7]; 23 μM): 103 ± 4.4%
- Relative MTT viability (%) ([7]; 233 μM): 93 ± 5.7%

Compound: O=C1c2ccccc2C(=O)c2c(NC(=O)C3CC3)ccc(NC(=O)C3CC3)c21 [VI21, 1,4-Bis(cyclopropionamido)-9,10-anthracenedione]
- Relative SEAP activity (%) ([1]; 2.6 μM): 64 ± 9.5%
- SEAP/vibility ([1]; 2.6 μM): 0.62
- Relative SEAP activity (%) ([1]; 26 μM): 54 ± 8.8%
- SEAP/vibility ([1]; 26 μM): 0.66
- Relative SEAP activity (%) ([1]; 267 μM): 43 ± 8.3%
- SEAP/vibility ([1]; 267 μM): 0.74
- Relative MTT viability (%) ([2]; 2.6 μM): 95 ± 4.2%
- Relative MTT viability (%) ([2]; 26 μM): 88 ± 4.2%
- Relative MTT viability (%) ([2]; 267 μM): 41 ± 4.6%
- IC50 [3]: > 20 µM
- IC50 [4]: > 20 µM
- IC50 [5]: > 20 µM
- Relative SEAP activity (%) ([6]; 2.6 μM): 108 ± 4.9%
- SEAP/vibility ([6]; 2.6 μM): 1.14
- Relative SEAP activity (%) ([6]; 26 μM): 106 ± 7.3%
- SEAP/vibility ([6]; 26 μM): 1.21
- Relative SEAP activity (%) ([6]; 267 μM): 92 ± 5.9%
- SEAP/vibility ([6]; 267 μM): 2.23
- Relative MTT viability (%) ([7]; 2.6 μM): 103 ± 6.8%
- Relative MTT viability (%) ([7]; 26 μM): 82 ± 5.9%
- Relative MTT viability (%) ([7]; 267 μM): 58 ± 4.1%
